From ChEMBL document CHEMBL3988181, “GlaxoSmithKline Published Kinase Inhibitor Set 2 Onchocerca lienalis Screening Data”

assay: GSK PKIS2: Screen against O. lienalis microfilariae, single point, at 3.1uM to assess reduction in motility. Compounds were also tested for cytotoxicity against Rhesus Monkey LLCMK2 cells.; format: functional, Onchocerca lienalis, LLC-MK2; details: CELL_LINE LLCMK2; CELL_SUPPLIER ECACC; CONC 3.1 uM; ORGANISM_SUPPLIER Extracted from peri-umbilical skin obtained from naturally infected cattle in the UK; temperature 37 degree C

SMILES | MOTILITY REDUCTION/CYTOTOXICITY
O=C(Nc1c(F)cccc1F)c1cc(C(=O)c2ccccc2F)c[nH]1 | 0%
C[C@@H](Oc1cc(-n2cnc3cc(-c4cnn(C)c4)ccc32)sc1C(N)=O)c1ccccc1Cl | 46.7%
Nc1cccc(-c2ccc3c(N)n[nH]c3c2)c1 | 33.4%
C[C@H]1CC[C@@H](C(=O)Nc2ccccc2)CN1c1cc(-c2ccc3c(N)n[nH]c3c2)nc(N)n1 | 0%
C[C@@H]1CC[C@@H](C(=O)Nc2ccccc2)CN1c1cc(-c2ccc3c(N)n[nH]c3c2)nc(N)n1 | 0%
C[C@@H]1CC[C@H](C(=O)NC2CCCCC2)CN1c1cc(-c2ccc3c(N)n[nH]c3c2)nc(N)n1 | 0%
CNc1nccc(-c2ccc3c(N)n[nH]c3c2)n1 | 0%
CC(C)c1cc(-c2ccc3c(N)n[nH]c3c2)nc(N)n1 | 0%
CC(C)Nc1cc(-c2ccc3c(N)n[nH]c3c2)nc(N)n1 | 60%
Nc1nc(-c2ccc3c(N)n[nH]c3c2)cc(N2CCCCC2)n1 | 0%
c1ccc(-c2cnc3nccnn23)cc1 | 0%
Fc1cccc(COc2ccc(Nc3ncnc4nn5ccccc5c34)cc2Cl)c1 | 0%
CSc1cccc2c(-c3ccncn3)c(-c3ccc(F)cc3)nn12 | 33.4%
Cc1ccccc1Cn1ccn2c(=O)cc(N3CCOCC3)nc12 | 0%
Cc1cccc(Cn2ccn3c(=O)cc(N4CCOCC4)nc23)c1 | 0%
Cc1c(Cn2c(C)c(C)n3c(=O)cc(N4CCOCC4)nc23)cccc1C(F)(F)F | 0%
COc1cc2c(Nc3ccc(NC(=O)c4ccccc4)cc3)ncnc2cc1OCCCN1CCOCC1 | 0%
Clc1ccc(-c2cc(-c3c[nH]nc3-c3ccccn3)ccn2)cc1 | 0%
Cn1cc(-c2ccc3c(c2)CCN3C(=O)Cc2ccccc2Cl)c2c(N)ncnc21 | 16.7%
Cn1cc(-c2ccc3c(c2)CCN3C(=O)Cc2cccc(Cl)c2)c2c(N)ncnc21 | 0%
COc1cccc(CC(=O)N2CCc3cc(-c4cn(C)c5ncnc(N)c45)ccc32)c1 | 0%
Cn1cc(-c2ccc3c(c2)CCN3C(=O)Cc2cc(F)cc(F)c2F)c2c(N)ncnc21 | 0%

SMILES | MOTILITY REDUCTION/CYTOTOXICITY
Nc1nccc2scc(-c3ccc4c(c3)CCN4C(=O)Cc3cc(F)ccc3F)c12 | 0%
Cc1ccc(CC(=O)N2CCc3cc(-c4cn(C)c5ncnc(N)c45)ccc32)cc1 | 0%
COC(=O)Nc1nc2ccc(Oc3ccc(NC(=O)Nc4cccc(SC)c4)cc3)cc2[nH]1 | 20%
COC(=O)Nc1nc2ccc(Oc3ccc(NC(=O)Nc4cc(C(F)(F)F)ccc4Cl)cc3)cc2[nH]1 | 0%
COC(=O)Nc1nc2ccc(Oc3ccc(NC(=O)Nc4cc(C(F)(F)F)ccc4F)cc3)cc2n1C | 0%
COc1cc2ncnc(Nc3cccc(Br)c3)c2cc1OC | 60%
Fc1ccc(-c2nc3n(c2-c2ccncc2)CCS3)cc1 | 13.4%
Nc1nc(-c2cccnc2)c(-c2ccnc3ccccc23)s1 | 33.4%
CC1=C(C(=O)Nc2cc3cn[nH]c3cc2F)C(c2ccc(C(F)(F)F)cc2)CC(=O)N1 (configuration not stated) | 0%
COc1cccc(-c2cc(-c3c[nH]nc3-c3ccccn3)ccn2)c1 | 0%
Cc1ccccc1-c1cc(-c2c[nH]nc2-c2ccccn2)ccn1 | 0%
Cc1c(Cn2c(C)nn3c(=O)cc(N4CCO[C@H](C)C4)nc23)cccc1C(F)(F)F | 0%
COc1ccc(NC(=O)c2ccc(-c3cc(-c4nnc(C)o4)ccc3C)cc2)cc1 | 33.4%
FC(F)(F)c1ccccc1-c1cc(-c2c[nH]nc2-c2ccccn2)ccn1 | 0%
N#Cc1ccc(-c2cc(-c3c[nH]nc3-c3ccccn3)ccn2)cc1 | 0%
NCC(NC(=O)c1cc(-c2cccnc2)c(-c2ccnc3[nH]ccc23)s1)c1ccccc1 (configuration not stated) | 0%
NC[C@H](CC1CCCCC1)NC(=O)c1cc(Br)c(-c2ccnc3[nH]ccc23)s1 | 0%
CS(=O)(=O)CCNCc1nc(-c2ccc3ncnc(Nc4ccc5c(cnn5Cc5ccccc5)c4)c3c2)cs1 | 33.4%
COc1ccc(COc2cc(-n3cnc4ccccc43)sc2C(N)=O)cc1 | 0%
COc1cc2ncn(-c3cc(OCc4sccc4Cl)c(C(N)=O)s3)c2cc1OC | 13.4%
NC[C@H](Cc1ccc(C(F)(F)F)cc1)NC(=O)c1cc(Br)c(-c2ccnc3[nH]ccc23)s1 | 0%
Cc1ccc2c(-c3ccncc3)c(-c3ccc(F)cc3)nn2c1 | 0%

SMILES | MOTILITY REDUCTION/CYTOTOXICITY
Cc1cccc2c(-c3ccncc3)c(-c3ccc(F)cc3)nn12 | 46.7%
CCn1c(-c2nonc2N)nc2c(-c3ccccc3)ncc(OCCCN)c21 | 100%
CCn1c(-c2nonc2N)nc2c(C#CC(C)(C)O)ncc(OCCCCN)c21 | 13.4%
NC(CNC(=O)c1cc(Br)c(-c2ccnc3[nH]ccc23)s1)c1ccccc1 (configuration not stated) | 40%
CS(=O)(=O)CCNCc1nc(-c2ccc3ncnc(Nc4ccc(OCc5ccccc5)c(Cl)c4)c3c2)cs1 | 0%
COc1cc2ncn(-c3cc(OCCCc4ccccc4)c(C(N)=O)s3)c2cc1OC | 33.4%
Fc1ccc(-c2nn3c(OCC(F)(F)F)cccc3c2-c2ccncc2)cc1 | 13.4%
COc1cc2ncn(-c3cc(OCC4CCCCC4)c(C(N)=O)s3)c2cc1OC | 33.4%
CN(C)CCNS(=O)(=O)c1ccc(-c2ccnc3[nH]ccc23)cc1 | 26.7%
COc1ccc(C[C@@H](CN)NC(=O)c2cc(Br)c(-c3ccnc4[nH]ccc34)s2)cc1 | 33.4%
COc1cc(Nc2nccc(-c3c(-c4cccc(NC(=O)c5c(F)cccc5F)c4)nn4ncccc34)n2)cc(OC)c1OC | 16.7%
c1ccc(Oc2ccc(Nc3ccnc4cc(-c5ccc(CN6CCCCC6)o5)ccc34)cc2)nc1 | 20%
Cc1ccc(NC(=O)Nc2ccccc2F)cc1-c1ccc(C(=O)Nc2ccncc2)cc1 | 53.4%
Cc1ccc(C)c(NC(=O)NC2CCN(c3ccnc(Nc4ccc(F)cc4)n3)C2)c1 (configuration not stated) | 33.4%
COc1cc(Nc2nccc(N3CCC(NC(=O)C4COc5ccccc5O4)C3)n2)cc(OC)c1OC (configuration not stated) | 0%
N#Cc1cccc(C(=O)NC2CCN(c3ccnc(Nc4ccc(F)cc4)n3)C2)c1 (configuration not stated) | 20%
COc1cc(Nc2nccc(N3CCC(NC(=O)c4cccc(NC(C)=O)c4)C3)n2)cc(OC)c1OC (configuration not stated) | 33.4%
CC(C)S(=O)(=O)N1CCN(Cc2ccc3c(c2)nc(NC(=O)c2ccsc2)n3C[C@H](O)c2ccccc2)CC1 | 0%
COc1ccc(Nc2nccc(-c3cccc(NC(=O)c4cc5cc(F)ccc5[nH]4)c3)n2)cc1 | 53.4%
COc1cc2nccc(Nc3cccc(Oc4ccccc4)c3)c2cc1OC | 0%
COc1ccc(CNC(=O)NC2CCN(c3ccnc(Nc4ccc(OC)cc4)n3)C2)cc1 (configuration not stated) | 0%
O=C(Nc1ccccc1F)NC1CCN(c2ccnc(Nc3ccc(F)cc3)n2)C1 (configuration not stated) | 0%

SMILES | MOTILITY REDUCTION/CYTOTOXICITY
O=C(NC1CCN(c2ccnc(Nc3ccc(F)cc3)n2)C1)c1cc2ccccc2s1 (configuration not stated) | 0%
O=C(Nc1ccc2c(c1)OCO2)NC1CCN(c2ccnc(Nc3ccc(F)cc3)n2)C1 (configuration not stated) | 33.4%
NC(=O)c1cccc(Nc2nccc(Nc3ccc(Oc4cccc(Cl)c4)c(Cl)c3)n2)c1 | 20%
CCCc1ccc(S(=O)(=O)NC2CCN(c3ccnc(Nc4ccc(F)cc4)n3)C2)cc1 (configuration not stated) | 0%
COc1cc(Nc2ccnc3ccc(C(F)(F)F)cc23)cc(OC)c1OC | 0%
Cc1ccc(F)c(C(=O)Nc2cccc(-c3nn4ccccc4c3-c3ccnc(Nc4cccc(F)c4)n3)c2)c1F | 0%
c1ccc(Oc2ccc(Nc3ccnc4cc(-c5ccc(CNCCN6CCOCC6)o5)ccc34)cc2)nc1 | 0%
CCCc1ccc(S(=O)(=O)NC2CCN(c3ccnc(Nc4ccc(OC)cc4)n3)C2)cc1 (configuration not stated) | 0%
CC(C(=O)NC1CCN(c2ccnc(Nc3ccc(F)cc3)n2)C1)c1ccc(Cl)cc1 (configuration not stated) | 33.4%
Cc1ccc(NC(=O)Nc2ccc(Cl)c(C(F)(F)F)c2)cc1-c1ccc(C(=O)Nc2ccncc2)cc1 | 40%
COc1cc(Nc2nccc(N3CCC(NC(=O)c4cc5ccccc5s4)C3)n2)cc(OC)c1OC (configuration not stated) | 0%
COc1ccc(Nc2nccc(N3CCC(NC(=O)c4cccc(NC(C)=O)c4)C3)n2)cc1 (configuration not stated) | 0%
COc1cc2nccc(Nc3ccc(NC(=O)c4ccc(C)cc4)c(O)c3)c2cc1OC | 0%
Cc1ccc(S(=O)(=O)Nc2ccc(Nc3nccc(Nc4cccc5[nH]ncc45)n3)cc2)cc1 | 0%
COC(=O)c1cccc(NC(=O)NC2CCN(c3ccnc(Nc4ccc(F)cc4)n3)C2)c1 (configuration not stated) | 0%
Fc1cc(Cl)ccc1Nc1ccnc2cc(-c3ccc(CN4CCSCC4)o3)ccc12 | 33.4%
COc1cc(Nc2nccc(-c3c(-c4cccc(NC(=O)c5c(F)cccc5F)c4)nn4ccccc34)n2)cc(OC)c1OC | 20%
CNC(=O)c1ccccc1Nc1nc(Nc2cccc(CS(C)(=O)=O)c2)ncc1C | 33.4%
COc1cc2c(Nc3cccc(NC(=O)c4ccccc4)c3)ncnc2cc1OCCCN1CCOCC1 | 0%
Nc1ncc(-c2ccc3nccc(-c4ccncc4)c3c2)cc1S(=O)(=O)N1CCOCC1 | 40%
Cc1occc1-c1ncc(OC[C@@H](N)Cc2c[nH]c3ccccc23)cc1-c1ccc2[nH]nc(C)c2c1 | 0%
